Measured values published in PMC9316000, “Preclinical Drug Pharmacokinetic, Tissue Distribution and Excretion Profiles of the Novel Limonin Derivate HY-071085 as an Anti-Inflammatory and Analgesic Candidate in Rats and Beagle Dogs” (Pharmaceuticals, 2022).
“Also recorded” adds a separate entry of the source. Read-outs that look alike come from different tables or passages of the source.

Key:
[1] = Pharmacokinetics after repeated-dose intragastric administration in rats; assay type: in vivo, Sprague Dawley rats; details: for CL/F at 14 days / MRT at 14 days / CL/F at 28 days / MRT at 28 days / Tmax at 14 days / Cmax at 14 days / half-life at 14 days / Vd/F at 14 days / Cmax at 28 days / Tmax at 28 days / half-life at 28 days / Vd/F at 28 days / AUC(0-inf) / AUC: rat, plasma, po, R-IG 6.5 mg/kg; for Vd/F at 14 days / Vd/F at 28 days: read-out: Vss/F; for decrease of plasma exposure level compared with single administration / AUC(0-inf) / AUC: 6.5 mg/kg; for decrease of plasma exposure level compared with single administration: after 28 days of continuous administration; for plasma drug exposure level as % of the single dose: 28th day of intragastric administration; for AUC: read-out: AUC0-tn
Protocol: Male and female rats were given HY-071085 (6.5 mg/kg) by gastric gavage twice a day for 28 days. […] After 28 days of continuous administration, the plasma exposure levels of the male and female rats decreased by 49% and 85%, respectively, compared with that after a single administration (Figure 6).
In vivo PK profiling in the rats: Sprague Dawley rats (approximately 177–221 g in weight) were purchased from Shanghai Xipur-Bikai Experimental Animal Co., Ltd. (Shanghai, China). Before the experiment, several rats were randomly divided into several groups, half males and half females in each group, fasting but free to drink water for 12 h. The dosage of the rats was dependent on the drug pharmacology: the HY-071085 active pharmaceutical ingredients were administered with a dosage volume of 0.25 mL/100 g body weight. The whole-blood samples were centrifuged at 8000 rpm for 5 min, and the plasma samples were separated and stored at –80 °C until the analysis.
(§1) According to the obtained plasma concentration time data, the pharmacokinetic parameters were calculated using Phoenix WinNonlin 8.1 software. The pharmacokinetic parameters—i.e., the area under the curve (AUC), mean residence time (MRT), clearance rate (Cl/F) and steady-state apparent distribution volume (Vss/F)—were calculated by the method of moments, which was estimated according to the following formulae: AUCtn=∑Ci+Ci−1ti−ti−1/2 AUC∞=AUCtn+Cm/λ AUMCtn=∑tiCi+ti−1Ci−1ti−ti−1/2 AUMC∞=AUMCtn+Ctntn/λ+1/λ^2 MRT=AUMC∞/AUC∞ Cl/F=Dose/AUC Vss/F=Cl∗MRT where Ctn is the plasma concentration of tn at the last point after administration, and the elimination rate constant was obtained by ln(concentration) time linear regression.
(§2) Due to the drug having significant individual differences in rats, it could not be uniformly fitted with a PK atrioventricular model; as such, the pharmacokinetic parameters analyzed in this study were calculated using a non-atrioventricular model. The pharmacokinetic parameters are defined as follows: Cmax is the maximum blood concentration after administration and absorption, Tmax is the time required to reach Cmax, t1/2 is the time required to eliminate half of the plasma drug concentration after the drug distribution in the body reaches equilibrium, Cl/F is the apparent clearance rate, AUC0-tn is the area under the blood concentration time curve within the dosing interval, AUC0-∞ is the area under the plasma concentration time curve from 0 to infinity, MRT is the average time that all drug molecules stay in the body, and Vss/F is the steady-state apparent distribution volume, which is the product of the clearance rate and average residence time.

[2] = Pharmacokinetics after repeated-dose intragastric administration in beagle dogs; assay type: in vivo; details: R-IG 2.5 mg/kg
Protocol: AUC0-∞ was 195.41 ± 90.03 and 728.57 ± 270.64 h∙ng/mL, respectively (Table 2, Figure 10). […] On the fifth and seventh days before administration, the plasma concentration (valley concentration) was mostly below the lower limit of quantification (1 ng/mL).
In vivo PK profiling in dogs: Beagle dogs (approximately 8–10 kg in weight) were purchased from Jiangsu Yadong Experimental Animal Research Institute Co. Ltd (Nanjing, China). Before the experiment, several beagle dogs were randomly divided into several groups, half males and half females in each group. Four cycles of single-dose administration experiments were carried out, and the cleaning period was 3–5 days. Repeated-dose administration was carried out after the end of four cycles of single-dose administrations and cleaning periods. According to the dosage for the rats, the dosage for the beagle dogs was converted via the body surface area method. The HY-071085 active pharmaceutical ingredients were administered with a dosage volume of 2 mL/kg body weight. The whole-blood samples were centrifuged at 8000 rpm for 5 min, and the plasma samples were separated and stored at –80 °C until the analysis.
as §1, §2

[3] = Excretion in feces, urine and bile (material balance) in rats; assay type: in vivo, Sprague Dawley rats
Protocol: After the single-dose intragastric administration of HY-071085 (6.5 mg/kg) to male and female rats, their feces, urine and bile were collected at various time points within 24 h in order to analyze the excretion of HY-071085. The amount of unchanged parent compound recovered from the feces, urine and bile was negligible in rats (about 1.3% of the dose, Table 3).
Excretion in urine and feces (rats): The Sprague Dawley rats were aged approximately 6 weeks old and weighed 185–212 g at the onset of treatment. Urine and fecal samples were collected for the excretion study using metabolic cages. After the oral administration of 6.5 mg/kg HY-071085, urine and feces were collected at 0–6, 6–12 and 12–24 h. The urine volumes were recorded and transferred to centrifuge tubes. The fecal weights were recorded at each sampling period, and then those feces were dried, ground and mixed thoroughly. Then, 0.1 g feces was accurately weighed, mixed with 1 mL deionized water, and homogenized to be used as a fecal sample. All of the samples were stored at –80 °C until the analysis.
Excretion in bile (rats): The Sprague Dawley rats were approximately 6 weeks old and weighed 174–215 g at the onset of treatment. The rats were anesthetized with diethyl ether, and the bile duct was then cannulated for bile collection. After allowing recovery from surgery and anesthesia, these bile duct–cannulated rats were administered a single 6.5 mg/kg dose of HY-071085 by gastric gavage.

[4] = set-up: method as in earlier work; details: Temp 25℃; cited from earlier work
[5] = Sprague Dawley, female rats, 14 days
[6] = Sprague Dawley, female rats, 28 days
[7] = Sprague Dawley, male rats, 14 days
[8] = Sprague Dawley, male rats, 28 days
[9] = Sprague-Dawley, female rats, 14 days
[10] = Sprague-Dawley, female rats, 28 days
[11] = Sprague-Dawley, male rats, 14 days
[12] = Sprague-Dawley, male rats, 28 days
[13] = female, Sprague Dawley, female rats, 14 days
[14] = female, Sprague Dawley, female rats, 28 days
[15] = male, Sprague Dawley, male rats, 14 days
[16] = male, Sprague Dawley, male rats, 28 days
[17] = both sexes, dog, plasma, po, 7 d
[18] = gavage 6.5 mg/kg, within 24 h, % of the dose

In the case of `CC1(C)OC2CC(=O)OCC23C1C/C(=N\OCCN1CCOCC1)C1(C)C3CC[C@@]2(C)[C@H](c3ccoc3)OC(=O)C3OC312` (stereo partly drawn) [HY-071085, (12S,12aS,E)-12-(furan-3-yl)-6,6,8a,12a-tetramethyl-8-((2-morpholinoethoxy)imino)dodecahydro-1H,3H-oxireno [2,3-d]pyrano [4’,3’:3,3a]isobenzofuro [5,4-f]isochromene-3,10(9aH)-dione], the CL/F at 14 days [1, 5] is reported as 630 mL/min/kg, the MRT at 14 days [1, 5] is reported as 2.18 ± 0.27 h and the CL/F at 28 days [1, 6] is reported as 1730 mL/min/kg. For the same molecule, the MRT at 28 days [1, 6] was 2.54 ± 1.15 h, the CL/F at 14 days [1, 7] was 836 mL/min/kg and the Tmax at 14 days [1, 7] was 0.65 ± 0.38 h. The CL/F at 28 days [1, 8] was 1860 mL/min/kg, the MRT at 28 days [1, 8] was 1.74 ± 0.86 h and the Cmax at 14 days [1, 9] was 125 ± 80.3 ng/mL. It also gave a Tmax at 14 days [1, 9] of 0.68 ± 0.75 h, a half-life at 14 days [1, 9] of 1.38 ± 0.24 h and a Vd/F at 14 days [1, 9] of 80 ± 51 L/kg. For the same molecule, the Cmax at 28 days [1, 10] was 37.2 ± 19.9 ng/mL, the Tmax at 28 days [1, 10] was 0.33 ± 0.16 h and the half-life at 28 days [1, 10] was 1.75 ± 1.14 h. For the same molecule, the Vd/F at 28 days [1, 10] was 292 ± 251 L/kg, the Cmax at 14 days [1, 11] was 63.2 ± 11.2 ng/mL and the MRT at 14 days [1, 11] was 2.26 ± 0.33 h. It also gave a half-life at 14 days [1, 11] of 1.52 ± 0.23 h, a Vd/F at 14 days [1, 11] of 108 ± 13.8 L/kg and a Cmax at 28 days [1, 12] of 38.9 ± 12.7 ng/mL. The Tmax at 28 days [1, 12] was 0.6 ± 0.78 h, the half-life at 28 days [1, 12] was 1.11 ± 0.41 h and the Vd/F at 28 days [1, 12] was 169 ± 35.2 L/kg. The “decrease of plasma exposure level compared with single administration” value ([1]; female rats) was 85%, the “plasma drug exposure level as % of the single dose” value ([1]; female rats) was “about 15%” and the AUC(0-inf) [1, 13] was 233 ± 159 ng·h/mL. For the same molecule, the AUC [1, 13] was 229 ± 159 ng·h/mL, the AUC(0-inf) [1, 14] was 70.2 ± 28.8 ng·h/mL and the AUC [1, 14] was 65.8 ± 28.9 ng·h/mL. The “decrease of plasma exposure level compared with single administration” value ([1]; male rats) was 49%, the “plasma drug exposure level as % of the single dose” value ([1]; male rats) was “about 50%” and the AUC(0-inf) [1, 15] was 133 ± 22.3 ng·h/mL. For the same molecule, the AUC [1, 15] was 127 ± 22.4 ng·h/mL, the AUC(0-inf) [1, 16] was 59.9 ± 10.5 ng·h/mL and the AUC [1, 16] was 55 ± 8.82 ng·h/mL. For the same molecule, the “plasma concentration (valley concentration) before administration” value ([2]; fifth and seventh days, mostly below the lower limit of quantification) was under 1 ng/mL, the AUC(0-inf) [2, 17] was 729 ± 271 ng·h/mL and the CL/F at 7 d [2, 17] was 32.3 mL/min/kg. For the same molecule, the Cmax at 7 d [2, 17] was 445 ± 135 ng/mL, the MRT at 7 d [2, 17] was 1.58 ± 0.14 h and the Tmax at 7 d [2, 17] was 0.27 ± 0.15 h. For the same molecule, the half-life at 7 d [2, 17] was 1.08 ± 0.13 h, the AUC ([2]; both sexes, dog, plasma, po, 7 d, read-out: AUC0-tn) was 723 ± 270 ng·h/mL and the Vd/F at 7 d ([2]; both sexes, dog, plasma, po, 7 d, read-out: Vss/F) was 3.04 ± 1.19 L/kg. For the same molecule, the route of elimination ([3]; excretion and material balance) was “mainly eliminated as metabolites; also recorded: mainly eliminated by metabolism”, the “HY-071085 prototype recovered in bile” value ([3]; gavage 6.5 mg/kg, bile 0~8 h, % of the dose) was 0.206 ± 0.206% and the “HY-071085 prototype recovered in feces” value [3, 18] was 0.812 ± 0.611%. The “HY-071085 prototype recovered in urine” value [3, 18] was 0.254 ± 0.164% and the Intrinsic solubility [4] was 4500 µg/mL.
